Values quoted from earlier work in patent publication US20050003003A1, “Modulation of release from dry powder formulations” (Advanced Inhalation Research, Inc., priority 1999, published 2005).

Conditions: Table 1, phospholipids with low transition temperatures
For `CCCCCCCCCCCCCC(=O)OC[C@H](COP(=O)(O)OCC(O)CO)OC(=O)CCCCCCCCCCCCC` (mixture of isomers) [DMPG, 1,2-Dimyristoyl-sn-glycero-3-[phospho-rac-(1-glycerol)]], the “Transition Temperature” value is listed as 23 °C. For `CCCCCCCCCCCCCCCC(=O)OC[C@H](COP(=O)(O)OCC(O)CO)OC(=O)CCCCCCCCCCCCCCC` (mixture of isomers) [DPPG, 1,2-Dipalmitoyl-sn-glycero-3-[phospho-rac-(1-glycerol)]], the “Transition Temperature” value is given as 41 °C. For `CCCCCCCCCCCCCC(=O)OC[C@H](COP(=O)(O)OC[C@H](N)C(=O)O)OC(=O)CCCCCCCCCCCCC` [1,2-Dimyristoyl-sn-glycero-3-[phospho-L-serine]], the “Transition Temperature” value is listed as 35 °C. For `CCCCCCCCCCCCCCC(=O)OC[C@H](COP(=O)([O-])OCC[N+](C)(C)C)OC(=O)CCCCCCCCCCCCCC` [1,2-Dipentadecanoyl-sn-glycero-3-phosphocholine], the “Transition Temperature” value is given as 33 °C. In the case of `CCCCCCCCCCCCC(=O)OC[C@H](COP(=O)([O-])OCC[N+](C)(C)C)OC(=O)CCCCCCCCCCCC` [1,2-Ditridecanoyl-sn-glycero-3-phosphocholine], the “Transition Temperature” value is given as 14 °C. For `CCCCCCCCCCCCCCCC(=O)O[C@H](COC(=O)CCCCCCCCCCCCC)COP(=O)([O-])OCC[N+](C)(C)C` [1-Myristoyl-2-palmitoyl-sn-glycero-3-phosphocholine], the “Transition Temperature” value is given as 35 °C. In the case of `CCCCCCCCCCCCCCCCCC(=O)O[C@H](COC(=O)CCCCCCCCCCCCC)COP(=O)([O-])OCC[N+](C)(C)C` [1-Myristoyl-2-stearoyl-sn-glycero-3-phosphocholine], the “Transition Temperature” value is listed as 40 °C. For `CCCCCCCCCCCCCCCC(=O)OC[C@H](COP(=O)([O-])OCC[N+](C)(C)C)OC(=O)CCCCCCCCCCCCC` [1-Palmitoyl-2-myristoyl-sn-glycero-3-phosphocholine], the “Transition Temperature” value is given as 27 °C. For `CCCCCCCCCCCCCCCCCC(=O)OC[C@H](COP(=O)([O-])OCC[N+](C)(C)C)OC(=O)CCCCCCCCCCCCC` [1-Stearoyl-2-myristoyl-sn-glycero-3-phosphocholine], the “Transition Temperature” value is given as 30 °C. For `CCCCCCCCCCCC(=O)OC[C@H](COP(=O)(O)O)OC(=O)CCCCCCCCCCC` [DLPA, 1,2-Dilauroyl-sn-glycero-3-phosphate], the “Transition Temperature” value is given as 31 °C. For `CCCCCCCCCCCC(=O)OC[C@H](COP(=O)([O-])OCC[N+](C)(C)C)OC(=O)CCCCCCCCCCC` [DLPC, 1,2-Dilauroyl-sn-glycero-3-phosphocholine], the “Transition Temperature” value is listed as −1 °C. In the case of `CCCCCCCCCCCC(=O)OC[C@H](COP(=O)(O)OCCN)OC(=O)CCCCCCCCCCC` [DLPE, 1,2-Dilauroyl-sn-glycero-3-phosphoethanolamine], the “Transition Temperature” value is given as 29 °C. In the case of `CCCCCCCCCCCCCC(=O)OC[C@H](COP(=O)([O-])OCC[N+](C)(C)C)OC(=O)CCCCCCCCCCCCC` [DMPC, 1,2-Dimyristoyl-sn-glycero-3-phosphocholine], the “Transition Temperature” value is listed as 23 °C. In the case of `CCCCCCCCCCCCCCCC(=O)OC[C@H](COP(=O)([O-])OCC[N+](C)(C)C)OC(=O)CCCCCCCCCCCCCCC` [DPPC, 1,2-Dipalmitoyl-sn-glycero-3-phosphocholine], the “Transition Temperature” value is listed as 41 °C.

Same assay, conditions: Table 2, phospholipids with high transition temperatures
In the case of `CCCCCCCCCCCCCCCCCC(=O)OCC(COP(=O)(O)OCC(O)CO)OC(=O)CCCCCCCCCCCCCCCCC` (racemic) [DSPG, 1,2-Distearoyl-sn-glycero-3-[phospho-rac-(1-glycerol)]], the “Transition Temperature” value is given as 55 °C. In the case of `CCCCCCCCCCCCCCCCC(=O)OC[C@H](COP(=O)([O-])OCC[N+](C)(C)C)OC(=O)CCCCCCCCCCCCCCCC` [1,2-Diheptadecanoyl-sn-glycero-3-phosphocholine], the “Transition Temperature” value is listed as 48 °C. In the case of `CCCCCCCCCCCCCCCC(=O)OC[C@H](COP(=O)(O)OC[C@H](N)C(=O)O)OC(=O)CCCCCCCCCCCCCCC` [1,2-Dipalmitoyl-sn-glycero-3-[phospho-L-serine]], the “Transition Temperature” value is listed as 54 °C. In the case of `CCCCCCCCCCCCCCCCCC(=O)OC[C@H](COP(=O)(O)OC[C@H](N)C(=O)O)OC(=O)CCCCCCCCCCCCCCCCC` [1,2-Distearoyl-sn-glycero-3-[phospho-L-serine]], the “Transition Temperature” value is listed as 68 °C. In the case of `CCCCCCCCCCCCCCCCCC(=O)O[C@H](COC(=O)CCCCCCCCCCCCCCC)COP(=O)([O-])OCC[N+](C)(C)C` [1-Palmitoyl-2-stearoyl-sn-glycero-3-phosphocholine], the “Transition Temperature” value is listed as 49 °C. For `CCCCCCCCCCCCCC(=O)OC[C@H](COP(=O)(O)O)OC(=O)CCCCCCCCCCCCC` [DMPA, 1,2-Dimyristoyl-sn-glycero-3-phosphate], the “Transition Temperature” value is given as 50 °C. For `CCCCCCCCCCCCCC(=O)OC[C@H](COP(=O)(O)OCCN)OC(=O)CCCCCCCCCCCCC` [DMPE, 1,2-Dimyristoyl-sn-glycero-3-phosphoethanolamine], the “Transition Temperature” value is given as 50 °C. In the case of `CCCCCCCCCCCCCCCC(=O)OC[C@H](COP(=O)(O)O)OC(=O)CCCCCCCCCCCCCCC` [DPPA, 1,2-Dipalmitoyl-sn-glycero-3-phosphate], the “Transition Temperature” value is listed as 67 °C. For `CCCCCCCCCCCCCCCC(=O)OC[C@H](COP(=O)(O)OCCN)OC(=O)CCCCCCCCCCCCCCC` [DPPE, 1,2-Dipalmitoyl-sn-glycero-3-phosphoethanolamine], the “Transition Temperature” value is given as 63 °C. In the case of `CCCCCCCCCCCCCCCCCC(=O)OC[C@H](COP(=O)([O-])OCC[N+](C)(C)C)OC(=O)CCCCCCCCCCCCCCCCC` [DSPC, 1,2-Distearoyl-sn-glycero-3-phosphocholine], the “Transition Temperature” value is given as 55 °C. For `CCCCCCCCCCCCCCCCCC(=O)OC[C@H](COP(=O)(O)OCCN)OC(=O)CCCCCCCCCCCCCCCCC` [DSPE, 1,2-Distearoyl-sn-glycero-3-phosphoethanolamine], the “Transition Temperature” value is given as 74 °C.

Same assay, conditions: bulk hydrated state
In the case of `CCCCCCCCCCCCCCCC(=O)OC[C@H](COP(=O)([O-])OCC[N+](C)(C)C)OC(=O)CCCCCCCCCCCCCCC` [DPPC, 1,2-Dipalmitoyl-sn-glycero-3-phosphocholine], the “transition temperature (Tc)” value is given as “approximately 41 °C”. For `CCCCCCCCCCCCCCCC(=O)OC[C@H](COP(=O)(O)OCCN)OC(=O)CCCCCCCCCCCCCCC` [DPPE, 1,2-Dipalmitoyl-sn-glycero-3-phosphoethanolamine], the “transition temperature (Tc)” value is listed as “approximately 63 °C”. For `CCCCCCCCCCCCCCCCCC(=O)OC[C@H](COP(=O)([O-])OCC[N+](C)(C)C)OC(=O)CCCCCCCCCCCCCCCCC` [DSPC, 1,2-Distearoyl-sn-glycero-3-phosphocholine], the “transition temperature (Tc)” value is listed as “approximately 55 °C”.

Same assay, conditions: phospholipid of the formulation
For `CCCCCCCCCCCCCCCC(=O)OC[C@H](COP(=O)([O-])OCC[N+](C)(C)C)OC(=O)CCCCCCCCCCCCCCC` [DPPC, 1,2-Dipalmitoyl-sn-glycero-3-phosphocholine], the theoretical transition is given as 41 °C. For `CCCCCCCCCCCCCCCCCC(=O)OC[C@H](COP(=O)([O-])OCC[N+](C)(C)C)OC(=O)CCCCCCCCCCCCCCCCC` [DSPC, 1,2-Distearoyl-sn-glycero-3-phosphocholine], the theoretical transition is given as 55 °C.
